Data from PubChem BioAssay (NCI).
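96-well plates; 48 h exposure; 5 concentrations. Endpoints by linear interpolation between flanking doses. Not reached: highest tested concentration assigned. The concentration for 50% growth inhibition is given as GI50. TGI marks complete inhibition of growth.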

System: MDA-MB-468 breast
Assay: growth of human tumour cells (NCI), 48 h

SMILES: Cc1ccc(C)c(-c2csc(Nc3ccc(C)c(C)c3)n2)c1
- GI50: 63.1 µM
- TGI: > 100 µM

SMILES: Cc1ccc(S(=O)(=O)N2CCc3ccc(O)c4c3C2Cc2cc(Cl)ccc2-4)cc1 (stereo not given)
- GI50: 0.707 µM
- TGI: 1.92 µM

SMILES: CC(C)n1c2c([n+](C)c1/C=C/c1ccccc1)C(=O)c1ccccc1C2=O
- GI50: < 0.01 µM
- TGI: 0.0148 µM

SMILES: CCCCCCCC[N+](C)(CCCCCCCC)CCCCCCCC
- GI50: 0.202 µM
- TGI: 0.901 µM

SMILES: COc1cc(C(=O)c2cc3c(cc2C)OCO3)cc(OC)c1OC
- GI50: 0.0311 µM

SMILES: COc1ccc(-c2nc(-c3nc4ccc(OC)cc4[nH]3)cc3c2[nH]c2ccccc23)cc1
- GI50: 3.16 µM
- TGI: > 100 µM

SMILES: CCn1cnc2c(Nc3cccc(Cl)c3)nc(N[C@@H]3CCCC[C@@H]3N)nc21
- GI50: 1.86 µM
- TGI: 4.36 µM

SMILES: CC(=O)OC[C@]12CC[C@@H](C(=O)/C=C/c3cccnc3)[C@@H]1[C@H]1CC[C@@H]3[C@@]4(C)CC[C@H](OC(C)=O)C(C)(C)[C@@H]4CC[C@@]3(C)[C@]1(C)CC2
- GI50: 1.77 µM
- TGI: 4.41 µM

SMILES: Cc1[nH]c(=O)[nH]c(=O)c1CO
- GI50: > 100 µM
- TGI: > 100 µM

SMILES: COc1ccccc1CNCCCN1C(=O)c2ccc3c4c(ccc(c24)C1=O)C(=O)N(CCCNCCCN)C3=O
- GI50: 0.246 µM
- TGI: 2.24 µM

SMILES: COc1ccc(C2=NN(C(C)=O)C(c3cn(-c4ccccc4)nc3-c3ccc(Cl)cc3)C2)cc1 (stereo not given)
- GI50: > 100 µM
- TGI: > 100 µM

SMILES: COc1ccc(/C=C/c2n[nH]c3ccc(N4CCOC4=O)cc23)cc1
- GI50: 2.44 µM
- TGI: 4.72 µM

SMILES: CCCN(CCC)c1ccc(/C=N/NC(=O)c2cccnc2)c(Cl)c1
- GI50: 0.197 µM
- TGI: 0.631 µM

SMILES: COC1=CC(c2ccc[nH]2)=N/C1=C\c1[nH]c(C)c(C(=O)CCCCC(=O)Nc2ccccc2)c1C
- GI50: 1.72 µM
- TGI: 3.66 µM

SMILES: COC(=O)C1=C(C(=O)OC)C23C=C(C)C1C2=C(C)C1(CC1)[C@@](C)(O)C3=O (stereo not given in full)
- GI50: 0.181 µM
- TGI: 0.421 µM

SMILES: CSc1nc2sc3cc(Cl)ccc3n2c(=N)c1C#N
- GI50: 2.13 µM
- TGI: 20 µM

SMILES: COc1cc(/C=C2\COc3ccc(O)c(O)c3C2=O)cc(OC)c1
- GI50: 1.91 µM
- TGI: 6.69 µM

SMILES: COc1cc(-c2cc(-c3nc4ccc(Cl)cc4[nH]3)[nH]n2)cc(OC)c1OC
- GI50: 2.33 µM
- TGI: 13.5 µM

SMILES: N#Cc1ccnc(N2C(=O)CC[C@H]2C(=O)N(c2cncc(F)c2)[C@H](C(=O)NC2CC(F)(F)C2)c2ccccc2Cl)c1
- GI50: 28.4 µM
- TGI: > 100 µM

SMILES: CC[C@]12C=CCN3CC[C@]4(C(=C(C(=O)OC)C1)Nc1cc5c(cc14)[C@@H]1[C@H](O5)[C@@H](O)[C@@]4(CC)CC(C(=O)OC)=C5Nc6cc(OC)ccc6[C@@]56CCN1[C@@H]46)[C@@H]32
- GI50: 0.0944 µM
- TGI: 1.34 µM

SMILES: COc1ccc(NC(=O)c2sc3nc(C)c(C(O)c4ccccc4)cc3c2N)cc1 (stereo not given)
- GI50: 1.9 µM
- TGI: 70.1 µM

SMILES: C[C@@H]1C=C2C(=O)O[C@@H]3CC[C@H](C1)[C@]23O
- GI50: 1.75 µM
- TGI: 5.5 µM

SMILES: C=C1C(=O)O[C@H]2[C@H]1CC/C(COC(=O)NCc1c[nH]c3ccc(Cl)cc13)=C\CC[C@@]1(C)O[C@@H]21
- GI50: 0.913 µM
- TGI: 2.5 µM

SMILES: NCCC(O)(P(=O)(O)O)P(=O)(O)O
- GI50: > 100 µM
- TGI: > 100 µM

SMILES: CCCc1nc2c(C)cc(-c3nc4ccccc4n3C)cc2n1Cc1ccc(-c2ccccc2C(=O)O)cc1
- GI50: 37.4 µM
- TGI: > 100 µM

SMILES: C[C@H]1[C@H](C)CC[C@]2(C(=O)O)CC[C@]3(C)C(=CC[C@@H]4[C@@]5(C)C/C(=C/c6ccco6)C(=O)C(C)(C)[C@@H]5CC[C@]43C)[C@H]12
- GI50: 4.07 µM
- TGI: 17.4 µM

SMILES: CCOC(=O)c1sc(Nc2ccc(Cl)cc2)nc1C
- GI50: 1.56 µM
- TGI: 4.24 µM

SMILES: CC(=O)N=c1ccc2nc3c(cc(N)c4ccccc43)oc-2c1
- GI50: 0.274 µM
- TGI: 1.4 µM

SMILES: NS(=O)(=O)c1ccc(CCN=C=S)cc1
- GI50: 0.38 µM
- TGI: 2.86 µM

SMILES: Cn1cc(C2=C(c3cn(CCN)c4ccccc34)C(=O)NC2=O)c2ccccc21
- GI50: 4.73 µM
- TGI: 13.4 µM

SMILES: O=C(CCCCCCNC(=O)C(O)(O)C(F)(F)F)Nc1ccc(Br)cc1
- GI50: 0.821 µM
- TGI: 2.68 µM

SMILES: Nc1ccc(/C=N/Nc2ccnc3c(N)cccc23)c2cccnc12
- GI50: 1.39 µM
- TGI: 2.99 µM

SMILES: COc1cc2nc(Nc3cccc(F)c3)nc(Nc3cc(C)[nH]n3)c2cc1OC
- GI50: 1.63 µM
- TGI: 3.23 µM

SMILES: Nc1c(C(=O)Nc2ccccc2Cl)sc2nc3c(cc12)CCCCCC3
- GI50: 2.25 µM
- TGI: 12 µM

SMILES: C=C(C)[C@@H]1CC[C@]2(C)[C@H](CC[C@@H]3[C@H]4[C@H]5OC[C@@]4(CCC5(C)C)CC[C@]32C)[C@@]1(C)CCCN
- GI50: 1.58 µM
- TGI: 3.05 µM

SMILES: COC(=O)CCC/C=C\C[C@H]1C=CC(=O)/C1=C/C[C@@H](O)C/C=C\CC(F)(F)F
- GI50: 1.74 µM
- TGI: 3.77 µM

SMILES: COc1ccc([N+](=O)[O-])c(S(=O)(=O)c2ccc(Cl)cc2)n1
- GI50: 1.93 µM
- TGI: 4.76 µM

SMILES: CCOC(=O)c1c(C(F)(F)F)n([O-])c2ccc(OC)cc2[n+]1=O
- GI50: 2.58 µM
- TGI: 7.41 µM
